According to patent US20250230193A1, “CYCLIC COMPOUND HAVING SELECTIVE KRAS INHIBITORY EFFECT ON HRAS AND NRAS” (CHUGAI SEIYAKU KABUSHIKI KAISHA, priority 2022, published 2025):

Tests used:
[1] = target: GDP-bound NRAS wild-type protein (Homo sapiens, UniProt P01111); test: Binding to NRAS by surface plasmon resonance (SPR), Single Cycle Kinetics; conditions: KD ratio NRAS/KRAS, SPR, GDP-bound wild-type proteins
[2] = target: GDP-bound HRAS wild-type protein (Homo sapiens, UniProt P01112); test: Binding to HRAS by surface plasmon resonance (SPR), Single Cycle Kinetics; conditions: KD ratio HRAS/KRAS, SPR, GDP-bound wild-type proteins
Chain of GDP-bound HRAS wild-type protein (P01112 whole entry): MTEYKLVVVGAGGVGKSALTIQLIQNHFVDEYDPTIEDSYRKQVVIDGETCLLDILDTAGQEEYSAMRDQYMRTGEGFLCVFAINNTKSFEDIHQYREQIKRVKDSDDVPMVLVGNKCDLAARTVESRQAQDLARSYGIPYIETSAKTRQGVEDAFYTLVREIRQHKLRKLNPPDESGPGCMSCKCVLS

Chain of GDP-bound NRAS wild-type protein (P01111 whole entry): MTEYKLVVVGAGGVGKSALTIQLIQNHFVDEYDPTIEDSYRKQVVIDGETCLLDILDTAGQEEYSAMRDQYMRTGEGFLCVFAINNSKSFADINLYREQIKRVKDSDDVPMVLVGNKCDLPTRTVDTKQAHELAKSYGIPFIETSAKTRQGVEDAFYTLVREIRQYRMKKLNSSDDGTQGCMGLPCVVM

Row | SMILES | NRAS/KRAS (ratio of KD value with respect to GDP-bound NRAS wild-type protein to KD value with respect to KRAS) [1] | HRAS/KRAS (ratio of KD value with respect to GDP-bound HRAS wild-type protein to KD value with respect to KRAS) [2]
1 | CC[C@H](C)[C@@H]1NC(=O)[C@@H]2CCCCCCc3ccc(cc3)C[C@@H](C(=O)N(C)CC(=O)N[C@@H](CCc3ccc(C(F)(F)F)c(OC)c3)C(=O)N3C[C@H](OC4CCC4)C[C@H]3C(=O)NC3(CC(C)(C)C3)C(=O)N(C)[C@@H](C3CCCC3)C(=O)N(C)[C@H](C(=O)N(C)C)CC(=O)N2C)N2CC/C=C\C[C@@H](C2=O)N(C)C(=O)CN(C)C1=O [PP3068] | A (a compound having 10 or more and less than 20 is denoted as A) | B (a compound having 3 or more and less than 10 is denoted as B)
2 | CC[C@H](C)[C@@H]1NC(=O)[C@@H]2CCCCCCc3ccc(cc3)C[C@@H](C(=O)N(C)CC(=O)N[C@@H](CCc3ccc(C(F)(F)F)c(OC)c3)C(=O)N3CC4(CC4)C[C@H]3C(=O)NC3(CC(C)(C)C3)C(=O)N(C)[C@@H](C3CCCC3)C(=O)N(C)[C@H](C(=O)N(C)C)CC(=O)N2C)N2CC/C=C\C[C@@H](C2=O)N(C)C(=O)CN(C)C1=O [PP3069] | A (a compound having 10 or more and less than 20 is denoted as A) | B (a compound having 3 or more and less than 10 is denoted as B)
3 | CCO[C@@H]1C[C@H]2C(=O)NC3(CC(C)(C)C3)C(=O)N(C)[C@@H](C3CCCC3)C(=O)N(C)[C@H](C(=O)N(C)C)CC(=O)N(C)[C@H]3CCCCCCc4ccc(cc4)C[C@@H](C(=O)N(C)CC(=O)N[C@@H](CCc4ccc(Cl)c(Cl)c4)C(=O)N2C1)N1CC/C=C\C[C@@H](C1=O)N(C)C(=O)CN(C)C(=O)[C@H]([C@@H](C)CC)NC3=O [PP3071] | A (a compound having 10 or more and less than 20 is denoted as A) | B (a compound having 3 or more and less than 10 is denoted as B)
4 | CC[C@H](C)[C@@H]1NC(=O)[C@@H]2CCCCCc3ccc(cc3)C[C@@H](C(=O)N(C)CC(=O)N[C@@H](CCc3ccc(C(F)(F)F)c(OC)c3)C(=O)N3C[C@H](OC(C)C)C[C@H]3C(=O)NC3(CC(C)(C)C3)C(=O)N(C)[C@@H](C3CCCC3)C(=O)N(C)[C@H](C(=O)N(C)C)CC(=O)N2C)N2CC/C=C\C[C@@H](C2=O)N(C)C(=O)CN(C)C1=O [PP3072] | A (a compound having 10 or more and less than 20 is denoted as A) | B (a compound having 3 or more and less than 10 is denoted as B)
5 | CC[C@H](C)[C@@H]1NC(=O)[C@@H]2CCCCCc3ccc(cc3)C[C@@H](C(=O)N(C)CC(=O)N[C@@H](CCc3ccc(C(F)(F)F)c(OC)c3)C(=O)N3C[C@H](OC4CCC4)C[C@H]3C(=O)NC3(CC(C)(C)C3)C(=O)N(C)[C@@H](C3CCCC3)C(=O)N(C)[C@H](C(=O)N(C)C)CC(=O)N2C)N2CC/C=C\C[C@@H](C2=O)N(C)C(=O)CN(C)C1=O [PP3073] | A (a compound having 10 or more and less than 20 is denoted as A) | A (a compound having 10 or more and less than 20 is denoted as A)
6 | CC[C@H](C)[C@@H]1NC(=O)[C@@H]2CCCCCc3ccc(cc3)C[C@@H](C(=O)N(C)CC(=O)N[C@@H](CCc3ccc(C(F)(F)F)c(OC)c3)C(=O)N3CC4(CC4)C[C@H]3C(=O)NC3(CC(C)(C)C3)C(=O)N(C)[C@@H](C3CCCC3)C(=O)N(C)[C@H](C(=O)N(C)C)CC(=O)N2C)N2CC/C=C\C[C@@H](C2=O)N(C)C(=O)CN(C)C1=O [PP3074] | A (a compound having 10 or more and less than 20 is denoted as A) | A (a compound having 10 or more and less than 20 is denoted as A)
7 | CCO[C@@H]1C[C@H]2C(=O)NC3(CC(C)(C)C3)C(=O)N(C)[C@@H](C3CCCC3)C(=O)N(C)[C@H](C(=O)N(C)C)CC(=O)N(C)[C@H]3CCCCCc4ccc(cc4)C[C@@H](C(=O)N(C)CC(=O)N[C@@H](CCc4ccc(C(F)(F)F)c(OC)c4)C(=O)N2C1)N1CC/C=C\C[C@@H](C1=O)N(C)C(=O)CN(C1CC1)C(=O)[C@H]([C@@H](C)CC)NC3=O [PP3075] | A (a compound having 10 or more and less than 20 is denoted as A) | A (a compound having 10 or more and less than 20 is denoted as A)
8 | CCO[C@@H]1C[C@H]2C(=O)NC3(CC(C)(C)C3)C(=O)N(C)[C@@H](C3CCCC3)C(=O)N(C)[C@H](C(=O)N(C)C)CC(=O)N(C)[C@H]3CCCCCc4ccc(cc4)C[C@@H](C(=O)N(C)CC(=O)N[C@@H](CCc4ccc(Cl)c(Cl)c4)C(=O)N2C1)N1CC/C=C\C[C@@H](C1=O)N(C)C(=O)CN(C)C(=O)[C@H]([C@@H](C)CC)NC3=O [PP3076] | AA (a compound having 20 or more is denoted as AA) | A (a compound having 10 or more and less than 20 is denoted as A)
9 | CCCO[C@@H]1C[C@H]2C(=O)NC3(CC(C)(C)C3)C(=O)N(C)[C@@H](C3CCCC3)C(=O)N(C)[C@H](C(=O)N(C)C)CC(=O)N(C)[C@H]3CCCCc4ccc(cc4)C[C@@H](C(=O)N(C)CC(=O)N[C@@H](CCc4ccc(C(F)(F)F)c(OC)c4)C(=O)N2C1)N1CC/C=C\C[C@@H](C1=O)N(C)C(=O)CN(C)C(=O)[C@H]([C@@H](C)CC)NC3=O [PP3077] | A (a compound having 10 or more and less than 20 is denoted as A) | B (a compound having 3 or more and less than 10 is denoted as B)
10 | CC[C@H](C)[C@@H]1NC(=O)[C@@H]2CCCCc3ccc(cc3)C[C@@H](C(=O)N(C)CC(=O)N[C@@H](CCc3ccc(C(F)(F)F)c(OC)c3)C(=O)N3C[C@H](OC(C)C)C[C@H]3C(=O)NC3(CC(C)(C)C3)C(=O)N(C)[C@@H](C3CCCC3)C(=O)N(C)[C@H](C(=O)N(C)CC)CC(=O)N2C)N2CC/C=C\C[C@@H](C2=O)N(C)C(=O)CN(C)C1=O [PP3078] | A (a compound having 10 or more and less than 20 is denoted as A) | B (a compound having 3 or more and less than 10 is denoted as B)
11 | CC[C@H](C)[C@@H]1NC(=O)[C@@H]2CCCCc3ccc(cc3)C[C@@H](C(=O)N(C)CC(=O)N[C@@H](CCc3ccc(C(F)(F)F)c(OC)c3)C(=O)N3C[C@H](OC4CCC4)C[C@H]3C(=O)NC3(CC(C)(C)C3)C(=O)N(C)[C@@H](C3CCCC3)C(=O)N(C)[C@H](C(=O)N(C)CC)CC(=O)N2C)N2CC/C=C\C[C@@H](C2=O)N(C)C(=O)CN(C)C1=O [PP3079] | A (a compound having 10 or more and less than 20 is denoted as A) | B (a compound having 3 or more and less than 10 is denoted as B)
12 | CC[C@H](C)[C@@H]1NC(=O)[C@@H]2CCCCc3ccc(cc3)C[C@@H](C(=O)N(C)CC(=O)N[C@@H](CCc3ccc(C(F)(F)F)c(OC)c3)C(=O)N3C[C@H](OC4CCCC4)C[C@H]3C(=O)NC3(CC(C)(C)C3)C(=O)N(C)[C@@H](C3CCCC3)C(=O)N(C)[C@H](C(=O)N(C)C)CC(=O)N2C)N2CC/C=C\C[C@@H](C2=O)N(C)C(=O)CN(C)C1=O [PP3080] | A (a compound having 10 or more and less than 20 is denoted as A) | B (a compound having 3 or more and less than 10 is denoted as B)
13 | CC[C@H](C)[C@@H]1NC(=O)[C@@H]2CCCCc3ccc(cc3)C[C@@H](C(=O)N(C)CC(=O)N[C@@H](CCc3ccc(C(F)(F)F)c(OC)c3)C(=O)N3CC4(CC4)C[C@H]3C(=O)NC3(CC(C)(C)C3)C(=O)N(C)[C@@H](C3CCCC3)C(=O)N(C)[C@H](C(=O)N(C)CC)CC(=O)N2C)N2CC/C=C\C[C@@H](C2=O)N(C)C(=O)CN(C)C1=O [PP3081] | A (a compound having 10 or more and less than 20 is denoted as A) | B (a compound having 3 or more and less than 10 is denoted as B)
14 | CCCO[C@@H]1C[C@H]2C(=O)NC3(CC(C)(C)C3)C(=O)N(C)[C@@H](C3CCCC3)C(=O)N(C)[C@H](C(=O)N(C)C)CC(=O)N(C)[C@H]3CCCCc4ccc(cc4)C[C@@H](C(=O)N(C)CC(=O)N[C@@H](CCc4ccc(C(F)(F)F)c(OC)c4)C(=O)N2C1)N1CC/C=C\C[C@@H](C1=O)N(C)C(=O)CN(C1CC1)C(=O)[C@H]([C@@H](C)CC)NC3=O [PP3082] | B (a compound having 3 or more and less than 10 is denoted as B) | B (a compound having 3 or more and less than 10 is denoted as B)
15 | CCCO[C@@H]1C[C@H]2C(=O)NC3(CC(C)(C)C3)C(=O)N(C)[C@@H](C3CCCC3)C(=O)N(C)[C@H](C(=O)N(C)CC)CC(=O)N(C)[C@H]3CCCc4ccc(cc4)C[C@@H](C(=O)N(C)CC(=O)N[C@@H](CCc4ccc(C(F)(F)F)c(OC)c4)C(=O)N2C1)N1CC/C=C\C[C@@H](C1=O)N(C)C(=O)CN(C)C(=O)[C@H]([C@@H](C)CC)NC3=O [PP3083] | A (a compound having 10 or more and less than 20 is denoted as A) | A (a compound having 10 or more and less than 20 is denoted as A)
